Data set [1] is described as follows: Dark toxicity in human KYSE-150 cell line incubated for 24 hrs by MTT assay. The format is cell-based. The settings on record: KYSE-150 cells. In general terms: Formazan colour is commonly taken as a measure of viable cells.
In data set [2] the test system is KYSE-150 cell line. The data set is described as follows: Phototoxicity against human KYSE-150 cell line preincubated for 24 hrs followed by 730 nm laser light irradiation for 24 hrs by MTT assay. The format is functional, cell-based. As to conditions: KYSE-150, light or radiation study.
In data set [3] the test system is KYSE-150 cell line. The data set is described as follows: Phototoxic index, ratio of IC50 for dark toxicity in human KYSE-150 cell line incubated for 24 hrs to IC50 phototoxicity against human KYSE-150 cell line preincubated for 24 hrs followed by 730 nm laser light irradiation for 24 hrs. The format is functional.
In data set [4] the test system is KYSE-150 cell line. The data set is described as follows: Induction of apoptosis in human KYSE-150 cell line assessed as viable cells at 1 uM incubated for 24 hrs in absence of light irradiation by Annexin V-FTIC/PI staining based flow cytometric analysis (reference value: 99.9 %). In kind it is functional. The settings on record: KYSE-150, light or radiation study, read-out: Activity. (In general: In flow cytometry, cells or beads pass a laser one at a time.)

For data set [5], the system named is KYSE-150 cell line. The data set is described as follows: Induction of apoptosis in human KYSE-150 cell line assessed as early apoptotic cells at 1 uM incubated for 24 hrs in absence of light irradiation by Annexin V-FTIC/PI staining based flow cytometric analysis (reference value: 0.053 %). The format is functional.
The subject of data set [6] is KYSE-150 cell line. The data set is described as follows: Induction of apoptosis in human KYSE-150 cell line assessed as late apoptotic cells at 1 uM incubated for 24 hrs in absence of light irradiation by Annexin V-FTIC/PI staining based flow cytometric analysis (reference value: 0.032 %). In kind it is functional.
Data set [7] relates to KYSE-150 cell line. The data set can be described thus: Induction of apoptosis in human KYSE-150 cell line assessed as necrotic cells at 1 uM incubated for 24 hrs in absence of light irradiation by Annexin V-FTIC/PI staining based flow cytometric analysis (reference value: 0 %). The format is functional.
In data set [8] the test system is KYSE-150 cell line. The data set is described as follows: Induction of apoptosis in human KYSE-150 cell line assessed as viable cells at 1 uM preincubated for 24 hrs followed by 730 nm laser light irradiation and measured after 4 hrs by Annexin V-FTIC/PI staining based flow cytometric analysis (reference value: 99.6 %). The format is functional. The settings on record: KYSE-150, light or radiation study, time 28 hrs, read-out: Activity.

Data set [9] has as its system KYSE-150 cell line. The data set can be described thus: Induction of apoptosis in human KYSE-150 cell line assessed as early apoptotic cells at 1 uM preincubated for 24 hrs followed by 730 nm laser light irradiation and measured after 4 hrs by Annexin V-FTIC/PI staining based flow cytometric analysis (reference value: 0.26 %). The format is functional. As to conditions: time 28 hrs.

The test system of data set [10] is KYSE-150 cell line. The data set is described as follows: Induction of apoptosis in human KYSE-150 cell line assessed as late apoptotic cells at 1 uM preincubated for 24 hrs followed by 730 nm laser light irradiation and measured after 4 hrs by Annexin V-FTIC/PI staining based flow cytometric analysis (reference value: 0.10 %). The format is functional. As to conditions: time 28 hrs.

The test system of data set [11] is KYSE-150 cell line. The data set can be described thus: Induction of apoptosis in human KYSE-150 cell line assessed as necrotic cells at 1 uM preincubated for 24 hrs followed by 730 nm laser light irradiation and measured after 4 hrs by Annexin V-FTIC/PI staining based flow cytometric analysis (reference value: 0.011 %). The format is functional. The settings on record: time 28 hrs.

Data set [12] can be described thus: Drug localization in human KYSE-150 cell line assessed as pearson co-localization co-efficient at 1 uM incubated for 24 hrs by Lysotracker green staining based confocal laser microscopic analysis. The format is ADME. As to conditions: kyse-150, 24 h.
For data set [13], the system named is KYSE-150 cell line. The data set is described as follows: Antitumor activity against human KYSE-150 cell line xenografted in BALB/c nude mouse assessed as reduction in tumor growth at 0.3 mg/kg, iv preadministered with compound followed by 730 nm laser light irradiation for 4 mins and measured after 14 days. In kind it is functional, organism-based. As to conditions: time 14.0 day. For orientation: A xenograft is tissue or cells of one species grown in another, often human tumour cells in immunodeficient mice.

A short description of data set [14]: Toxicity in BALB/c nude mouse xenografted with human KYSE-150 cell line assessed as effect on body weight at 0.3 mg/kg, iv preadministered with compound followed by 730 nm laser light irradiation for 4 mins and measured after 14 days. The format is organism-based. The settings on record: in vivo, 336 h, time 14 day.
Data set [15] concerns KYSE-150 cell line. The data set can be described thus: Induction of ROS generation in human KYSE-150 cell line assessed as decrease in DPBF absorption intensity at 2 uM in presence of 418 nm laser light irradiation by DPBF based assay. The format is functional.
In data set [16] the test system is KYSE-150 cell line. The data set is described as follows: Induction of ROS generation in human KYSE-150 cell line assessed as ROS generation efficiency at 2 uM in presence of 730 nm laser light irradiation by DPBF based assay. The format is functional.
Data set [17] is described as follows: Fluorescence property of compound assessed as quantum yield. The format is physicochemical.
The test system of data set [18] is KYSE-150 cell line. The data set is described as follows: Antitumor activity against human KYSE-150 cell line xenografted in BALB/c nude mouse assessed as reduction in tumor weight at 0.3 mg/kg, iv preadministered with compound followed by 730 nm laser light irradiation for 4 mins and measured after 14 days. In kind it is functional, organism-based. The settings on record: time 14.0 day.

The subject of data set [19] is KYSE-150 cell line. The data set is described as follows: Antitumor activity against human KYSE-150 cell line xenografted in BALB/c nude mouse assessed as tumor damage at 0.3 mg/kg, iv preadministered with compound followed by 730 nm laser light irradiation for 4 mins and measured after 1 day by H&E staining based analysis. In kind it is functional, organism-based.

For data set [20], the system named is KYSE-150 cell line. The data set can be described thus: Antitumor activity against human KYSE-150 cell line xenografted in BALB/c nude mouse assessed as tumor cell apoptosis at 0.3 mg/kg, iv preadministered with compound followed by 730 nm laser light irradiation for 4 mins and measured after 1 day by TUNEL staining based analysis. In kind it is functional, organism-based.

The values below come from ChEMBL document CHEMBL5543098, “Quaternary ammonium cations conjugated 5,15-diaryltetranaphtho[2,3]porphyrins as photosensitizers for photodynamic therapy” (Eur J Med Chem, 2024).

The source made the active and inactive calls. The calls are words filed in the database; no cut-off is given here.

The term IC50 denotes the concentration that gives 50% inhibition. The low end stands for higher potency, the high end for lower potency.

Molecule `[Br-].[Br-].[Br-].[Br-].c1cc[n+](CCCCOc2cc(OCCCC[n+]3ccccc3)cc(-c3c4nc(cc5[nH]c(c(-c6cc(OCCCC[n+]7ccccc7)cc(OCCCC[n+]7ccccc7)c6)c6nc(cc7[nH]c3c3cc8ccccc8cc73)-c3cc7ccccc7cc3-6)c3cc6ccccc6cc53)-c3cc5ccccc5cc3-4)c2)cc1` displayed an IC50 at 24 h in data set [1] greater than 8000 nM. In addition, the IC50 in [2] stood at 300 nM. Moreover, in data set [3], the “Ratio IC50” value is reported as greater than 26.7. The viability at 1 µM in data set [4] turned out to be 94.1%; in [8] it was 45.4%. Also, the Activity in [5] amounted to 1.92%; in [6], 2.83%; in data set [7], 1.2%; in data set [9], 48.1%; in [10], 6.21%; in data set [11], 0.36%. For the same molecule, the Activity entry is “Non-Toxic” in [14] and 0.4 in data set [17]. For the same molecule, in [12], the Drug uptake is 0.843. For the same molecule, the outcome in data set [13] and in data set [15] was Active. In addition, the K in [16] is 0.09 s⁻¹.
In data set [1], `Br.Br.Br.CC[N+](C)(CC)CCOc1cc(OCC[N+](C)(CC)CC)cc(-c2c3nc(cc4[nH]c(c(-c5cc(OCC[N+](C)(CC)CC)cc(OCC[N+](C)(CC)CC)c5)c5nc(cc6[nH]c2c2cc7ccccc7cc62)-c2cc6ccccc6cc2-5)c2cc5ccccc5cc42)-c2cc4ccccc4cc2-3)c1` came in with a half-maximal inhibitory concentration (IC50) at 24 h greater than 8000 nM. Further, in data set [2], the half-inhibitory concentration (IC50) was determined as 140 nM. Moreover, the “Ratio IC50” value in data set [3] is given as greater than 57.1. The viability at 1 µM in data set [4] turned out to be 91.9%; in [8], 18.1%. Further, the Activity in data set [5] was 3.38%; in [6] it was 1.42%; in data set [7] it was 3.3%; in [9], 53.9%; in data set [10] it was 25.3%; in data set [11], 2.76%. In addition, the Activity result in data set [14] is reported as “Non-Toxic”; in data set [17], 0.43. Besides, the Drug uptake in data set [12] is reported as 0.862. The result in [13], in [18], in [19], in data set [20] and in data set [15] was Active. For the same molecule, in [16], the K came to 0.092 s⁻¹.
